One test relates to MCF7. Description: Antiproliferative activity against human MCF7 cells assessed as inhibition of cell proliferation measured after 72 hrs by CCK-8 assay. The test is classed as functional, cell-based. As to conditions: MCF7, 72 h. A general note: Tetrazolium assays rely on reduction of a dye to a coloured formazan, in cell work by metabolically active cells.
The next test has as its system MDA-MB-231. Briefly: Antiproliferative activity against human MDA-MB-231 cells assessed as inhibition of cell proliferation measured after 72 hrs by CCK-8 assay. The test is classed as functional, cell-based. As to conditions: MDA-MB-231, 72 h.
The next test deals with MCF-10A. Description: Cytotoxicity against human MCF-10A cells assessed as inhibition of cell proliferation measured after 72 hrs by CCK-8 assay. The test is classed as cell-based.

pIC50: −log10 of the molar value.

Regarding `N[C@@H](Cc1ccc(N(CCCl)CCCl)cc1)C(=O)O` [MELPHALAN], the results for the pIC50 in the test with MCF7, with MDA-MB-231 and in the test on MCF-10A were 5.07, under 4.70 and under 4.40, respectively.

Consider `COC(=O)[C@H](Cc1ccc(N(CCCl)CCCl)cc1)NC(=O)CCCC(=O)OCc1cc2c([nH]c3ccccc32)c(-c2ccc(OC)cc2)n1`, for which the pIC50 in the test on MCF7 is under 4.70; in the test on MDA-MB-231 it was under 4.70; with MCF-10A, under 4.40.

For `Cc1nc(COC(=O)c2ccc(N(CCCl)CCCl)cc2)cc2c1[nH]c1ccccc12`, the values for the pIC50 with MCF7, with MDA-MB-231 and in the test with MCF-10A were 5.42, 5.13 and 4.58, respectively.

With `COC(=O)[C@H](Cc1ccc(N(CCCl)CCCl)cc1)NC(=O)CCC(=O)OCc1cc2c(cn1)[nH]c1ccccc12`, the pIC50 is under 4.70 in the test with MCF7, under 4.70 in the test on MDA-MB-231 and under 4.40 with MCF-10A.

`COC(=O)[C@H](Cc1ccc(N(CCCl)CCCl)cc1)NC(=O)CCC(=O)OCc1cc2c([nH]c3ccccc32)c(C)n1`: the negative-log IC50 (pIC50) was under 4.70 in the test on MCF7, under 4.70 with MDA-MB-231 and under 4.40 with MCF-10A.

With `COC(=O)[C@H](Cc1ccc(N(CCCl)CCCl)cc1)NC(=O)CCCC(=O)OCc1cc2c(cn1)[nH]c1ccccc12`, the pIC50 in the test on MCF7 was under 4.70; with MDA-MB-231, under 4.70; in the test on MCF-10A it was under 4.40.

For the compound `O=C(OCc1cc2c(cn1)[nH]c1ccccc12)c1ccc(N(CCCl)CCCl)cc1`, the pIC50 was 5.64 in the test with MCF7, 5.02 in the test on MDA-MB-231 and under 4.40 in the test on MCF-10A.

Turning to `Cc1nc(COC(=O)[C@H](Cc2ccc(N(CCCl)CCCl)cc2)NC(=O)OC(C)(C)C)cc2c1[nH]c1ccccc12`, the results for the negative-log IC50 (pIC50) with MCF7, with MDA-MB-231 and in the test with MCF-10A were 5.31, 4.76 and under 4.40, respectively.

On to `COc1cccc2c1C(=O)c1c(O)c3c(c(O)c1C2=O)C[C@@](O)(C(=O)CO)C[C@@H]3O[C@H]1C[C@H](N)[C@H](O)[C@H](C)O1` [DOXORUBICIN], for which, in the test with MDA-MB-231, the pIC50 was 5.56.

With `COc1ccc(-c2nc(COC(=O)c3ccc(N(CCCl)CCCl)cc3)cc3c2[nH]c2ccccc23)cc1`, the pIC50 is 5.63 with MCF7, 4.84 in the test on MDA-MB-231 and 4.45 in the test on MCF-10A.

The term pIC50 denotes the IC50 on a negative log10 scale, so that one unit is a factor of ten.

The values are drawn from ChEMBL document CHEMBL4834486 (Bioorg Med Chem, 2021).
